# Marks after values point to notes of the source that are not given here.
# Tests used:
# Type in all cases: cell-based, human
# HepaRG cells [1] = assay: RT-PCR mRNA levels of hepatic genes in HepaRG monolayer cultures; conditions: CG treatment
# Description: The HepaRG cells cultured in the 6-well plates are lysed and the RNA is isolated using the RNeasy kit (Qiagen). Next, real-time reverse transcriptase-polymerase chain reactions (RT-PCR) are performed to quantify mRNA levels of hepatic genes as well as 18S ribosomal RNA levels by RT-PCR.
# First-strand cDNA is generated using a combination of 40 pmol of gene-specific RT-primers (see Table 1) and 134 units of Superscript III (Invitrogen) and 1 μg RNA in a total volume of 25 μl at 50° C. for one hour followed by a 15 min incubation at 70° C. The resulting gene-specific RT reaction mixtures are column purified using Qiaquick PCR Purification Kit (Qiagen).
# Real-time PCR is performed using 1 μl of cDNA and LightCycler FastStart DNA Master SYBR® Green 1 reagent (Roche). PCR primers are depicted in the Table 3. The thermal cycling profile of the touchdown PCR is as follows: 94° C. for 10 min, followed by 40 cycles of 94° C. for 1 s, primer annealing at 68° C. for 7 s with a 0.5° C./cycle decrease until 63° C., and extension for 40 s at 72° C. PCR specificity is verified by melting curve analysis and agarose gel electrophoresis. The mRNA quantification is carried out by using the LinRegPCR programme (Ramakers et al.^17). For each sample the mRNA starting level is normalised for the 18S rRNA starting level. To correct for variations between RT-PCR runs, the mRNA starting levels of liver specific genes of NKNT-3 cells are additionally standardized for average mRNA starting levels of two liver samples that are simultaneously subjected to RT-PCR.
# HepG2 cells = assay: Urea production of HepG2 cells in monolayer, response to CG
# Description: (§1) Urea: Urea concentrations of test medium samples are determined using the blood urea nitrogen test of Sigma Chemical Co according to the instructions of the manufacturer.
# (§2) The HepaRG cells are cultured as indicated above in 24 well in presence or absence of 1 mM CG during the last 5 days. Next the cells are tested as indicated above in presence or absence of CG during 24 hours. To determine the conversion of ammonia into urea, the ^15N urea enrichment (single and double labeled) is measured in the test samples using mass-spectrometry. Similarly, HepG2 and cBAL111 cells were tested for their response to CG.
# cBAL111 cells = assay: Urea production of cBAL111 cells in monolayer, response to CG
# Description: as §1, §2
# HepaRG cells [2] = assay: Urea production of HepaRG monolayer cultures
# Description: For testing, the cells are seeded in 6-well and 24-well culture plates (Corning) in HepaRG media with different FBS batches or other differences in medium composition. After a 2 weeks proliferation phase, 2% of DMSO will be added to half of the cultures. After another 2 weeks of culturing, the confluence and morphology of the cultures will be assessed microscopically. Furthermore the +DMSO and −DMSO cell cultures in the 24-well plates will be tested for biochemical activity, i.e. urea production, ammonia elimination and protein content. […] Medium samples are taken after 1 hr from the culture wells, as a reference, and after 24 hours. At the end of the test period the cells are washed three times using PBS and stored at −20° C. for protein determination. From the changes in concentration at t=1 hr and 24 hr of urea and ammonia an activity per hour and per mg protein/well is calculated.
# as §1, §2
# HepaRG cells [3] = assay: AMC-BAL bioreactor functionality test of HepaRG cells
# Description: One liter of HepaRG medium containing 75 ml of viable HepaRG cells is injected under sterile conditions into an AMC-BAL bioreactor (cf. Flendrig et al.^15) through three loading ports. […] To ensure optimal cell attachment and an even cell distribution, bioreactors are rotated 340° (back and forth) along the longitudinal axis at 1 revolution/min. After this attachment period, dead and unattached cells are removed by flushing 500 mL of fresh culture medium through the bioreactor at 150 mL/min. From then on bioreactors are perfused with 1.5 L recirculating culture medium at 150 mL/min. The medium is refreshed every three days. The bioreactors are cultured in HepaRG medium for 14 days. […] At least one week prior to clinical application, 1 mM CG (Sigma) is added to the media to enhance the urea cycle. The bioreactors are tested every culture week and prior to clinical application for sterility and function. Laboratory model AMC-BAL bioreactors, e.g. of a different scale, are produced in essentially the same way as described above. These laboratory model bioreactors are used e.g. for clinical testing in animal models, such as rats with acute liver failure.
# Thirdly, the culture medium is replaced by 1500 ml test medium. […] At first 700 ml test medium is flushed through the bioreactor followed by recirculation of 800 ml test medium during 24 hours. […] From the changes in concentration an activity per hour and per billion cells seeded is calculated.
# HepaRG cells [4] = assay: RT-PCR mRNA levels of hepatic genes in HepaRG cells from AMC-BAL bioreactor
# [5] = 1 mM CG in preincubation and in testmedium (++)
# [6] = 1 mM CG only during preincubation (+−)
# [7] = Bioreactor −DMSO +CG versus Monolayer + DMSO − CG
# [8] = Bioreactor −DMSO +CG versus Monolayer − DMSO − CG
# [9] = HepaRG in AMC-BAL bioreactor, 13 days, −DMSO, 1 mM CG
structure (smiles),measurement,setting,value
"NC(=O)N[C@@H](CCC(=O)O)C(=O)O [CG, carbamoyl glutamate]",effect on other hepatic functions and the gene expression profiles,HepaRG cells [1],No effect
same,Urea production,HepG2 cells; [5],2.4 ± 1.6 nmol/h/mg protein
same,Urea production,HepG2 cells; [6],2.5 ± 1.4 nmol/h/mg protein
same,Urea production,HepG2 cells; 1 mM CG only during test (−+),1.8 ± 1.1 nmol/h/mg protein
same,Urea production,cBAL111 cells; [5],9.4 ± 8.4 nmol/h/mg protein
same,Urea production,cBAL111 cells; [6],10.8 ± 6.2 nmol/h/mg protein
same,Urea production,cBAL111 cells; 1 mM CG only during test (−+),8.3 ± 8.3 nmol/h/mg protein
same,instantaneous effect of CG on urea production,HepaRG cells [2],negligible
same,Urea production,"HepaRG cells [2]; HepaRG + DMSO, 1 mM CG in preincubation and in testmedium (++)",13.7 ± 4.4 nmol/h/mg protein
same,Urea production,"HepaRG cells [2]; HepaRG + DMSO, 1 mM CG only during preincubation (+−)",11.0 ± 5.3 nmol/h/mg protein
same,Urea production,"HepaRG cells [2]; HepaRG + DMSO, 1 mM CG only during test (−+)",4.9 ± 4.2 nmol/h/mg protein
same,Urea production,"HepaRG cells [2]; HepaRG − DMSO, 1 mM CG in preincubation and in testmedium (++)",9.5 ± 4.2 nmol/h/mg protein
same,Urea production,"HepaRG cells [2]; HepaRG − DMSO, 1 mM CG only during preincubation (+−)",9.6 ± 3.3 nmol/h/mg protein
same,Urea production,"HepaRG cells [2]; HepaRG − DMSO, 1 mM CG only during test (−+)",5.9 ± 2.4 nmol/h/mg protein
same,increase of urea production by CG treatment,"HepaRG cells [2]; all cell lines (HepG2, cBAL111, HepaRG), 1 mM CG",more than two-fold
same,time increased urea production is maintained upon withdrawal of the CG,HepaRG cells [2]; cells exposed to carbamoyl glutamate for at least 5 days,at least 24 hrs
same,% improvement by bioreactor: 15N urea enrichment,HepaRG cells [3]; [7],157* %
same,% improvement by bioreactor: Ammonia elimination,HepaRG cells [3]; [7],134%
same,% improvement by bioreactor: ApoA1 synthesis,HepaRG cells [3]; [7],113%
same,% improvement by bioreactor: Lactate consumption,HepaRG cells [3]; [7],conversion*
same,% improvement by bioreactor: Urea production,HepaRG cells [3]; [7],187* %
same,% improvement by bioreactor: 15N urea enrichment,HepaRG cells [3]; [8],418* %
same,% improvement by bioreactor: Ammonia elimination,HepaRG cells [3]; [8],199* %
same,% improvement by bioreactor: ApoA1 synthesis,HepaRG cells [3]; [8],154%
same,% improvement by bioreactor: Lactate consumption,HepaRG cells [3]; [8],conversion*
same,% improvement by bioreactor: Urea production,HepaRG cells [3]; [8],262* %
same,15N urea enrichment,HepaRG cells [3]; [9],25.1 ± 3.7 % of total urea
same,Ammonia elimination,HepaRG cells [3]; [9],143 ± 105 nmol/h/mg protein
same,ApoA1 synthesis,HepaRG cells [3]; [9],1.2 ± 0.9 ug/h/mg protein
same,Lactate consumption,HepaRG cells [3]; [9],42.1 ± 14.7 nmol/h/mg protein
same,Urea production,HepaRG cells [3]; [9],13.1 ± 1.2 nmol/h/mg protein
same,% improvement by bioreactor: Alb mRNA level,HepaRG cells [4]; [7],313* %
same,% improvement by bioreactor: ArgI mRNA level,HepaRG cells [4]; [7],460* %
same,% improvement by bioreactor: ArgII mRNA level,HepaRG cells [4]; [7],42%
same,% improvement by bioreactor: CPS mRNA level,HepaRG cells [4]; [7],4000* %
same,% improvement by bioreactor: CYP2B6 mRNA level,HepaRG cells [4]; [7],49%
same,% improvement by bioreactor: CYP3A4 mRNA level,HepaRG cells [4]; [7],148%
same,% improvement by bioreactor: GS mRNA level,HepaRG cells [4]; [7],714%
same,% improvement by bioreactor: HNF4 mRNA level,HepaRG cells [4]; [7],198* %
same,% improvement by bioreactor: PXR mRNA level,HepaRG cells [4]; [7],633%
same,% improvement by bioreactor: Alb mRNA level,HepaRG cells [4]; [8],109%
same,% improvement by bioreactor: ArgI mRNA level,HepaRG cells [4]; [8],155%
same,% improvement by bioreactor: ArgII mRNA level,HepaRG cells [4]; [8],54%
same,% improvement by bioreactor: CPS mRNA level,HepaRG cells [4]; [8],145%
same,% improvement by bioreactor: CYP2B6 mRNA level,HepaRG cells [4]; [8],863* %
same,% improvement by bioreactor: CYP3A4 mRNA level,HepaRG cells [4]; [8],1063* %
same,% improvement by bioreactor: GS mRNA level,HepaRG cells [4]; [8],300* %
same,% improvement by bioreactor: HNF4 mRNA level,HepaRG cells [4]; [8],187* %
same,% improvement by bioreactor: PXR mRNA level,HepaRG cells [4]; [8],437%
same,Alb mRNA level,HepaRG cells [4]; [9],72.1 ± 26.0 % of in vivo
same,ArgI mRNA level,HepaRG cells [4]; [9],22.9 ± 10.4 % of in vivo
same,ArgII mRNA level,HepaRG cells [4]; [9],305 ± 143 % of in vivo
same,CPS mRNA level,HepaRG cells [4]; [9],44.1 ± 32.2 % of in vivo
same,CYP2B6 mRNA level,HepaRG cells [4]; [9],30.2 ± 15.9 % of in vivo
same,CYP3A4 mRNA level,HepaRG cells [4]; [9],102 ± 49.4 % of in vivo
same,GS mRNA level,HepaRG cells [4]; [9],643 ± 395 % of in vivo
same,HNF4 mRNA level,HepaRG cells [4]; [9],386 ± 216 % of in vivo
same,PXR mRNA level,HepaRG cells [4]; [9],82.5 ± 68.9 % of in vivo

# — patent US8921108B2, “Differentiated human liver cell cultures and their use in bioartificial liver systems” (Academisch Ziekenhuis Bij de Universiteit van Amsterdam, priority 2009, dated 2014)
